According to the NIST ThermoML archive (doi:10.1016/j.jct.2006.04.007):
Where “and” joins values, the source holds several entries; their conditions need not be identical. Equal values may be shown once.

Assay: mn = molality of the nth substance listed, in mol/kg
Details: 350 kPa, Liquid; for apparent molar heat capacity: Extra sensitive DSC

CC(=O)N[C@@H](C=O)[C@@H](O)[C@H](O)[C@H](O)CO [N-acetyl-D-glucosamine] + O
Details | apparent molar heat capacity | mass density
318.15 K, m1 = 0.1999 | – | 1004.1 kg/m3
318.15 K, m1 = 0.3018 | – | 1010.81 kg/m3
318.15 K, m1 = 0.5001 | – | 1023.43 kg/m3
318.15 K, m1 = 0.7003 | – | 1035.3 kg/m3
318.15 K, m1 = 0.958 | – | 1051.87 kg/m3
323.15 K, m1 = 0.0096 | 516 J/K/mol | –
323.15 K, m1 = 0.0207 | 501 J/K/mol | –
323.15 K, m1 = 0.03 | 483 J/K/mol and 488 J/K/mol | –
323.15 K, m1 = 0.07 | 493.4 J/K/mol | –
323.15 K, m1 = 0.1502 | 483.4 J/K/mol | –
323.15 K, m1 = 0.1999 | 495.3 J/K/mol | –
323.15 K, m1 = 0.3018 | 498.2 J/K/mol | –
323.15 K, m1 = 0.5001 | 502.3 J/K/mol | –
323.15 K, m1 = 0.7003 | 503 J/K/mol | –
323.15 K, m1 = 0.958 | 484.1 J/K/mol | –
328.15 K, m1 = 0.0096 | 524 J/K/mol | –
328.15 K, m1 = 0.01 | – | 986.41 kg/m3
328.15 K, m1 = 0.02 | – | 987.4 kg/m3
328.15 K, m1 = 0.0207 | 509 J/K/mol | –
328.15 K, m1 = 0.03 | 490 J/K/mol and 497 J/K/mol | 987.95 kg/m3 and 987.87 kg/m3
328.15 K, m1 = 0.07 | 501.3 J/K/mol | 990.79 kg/m3
328.15 K, m1 = 0.1502 | 492.7 J/K/mol | 997.12 kg/m3
328.15 K, m1 = 0.1999 | 503.9 J/K/mol | 999.48 kg/m3
328.15 K, m1 = 0.3018 | 506.8 J/K/mol | 1006.12 kg/m3
328.15 K, m1 = 0.5001 | 510.8 J/K/mol | 1018.64 kg/m3
328.15 K, m1 = 0.7003 | 511.5 J/K/mol | 1030.41 kg/m3
328.15 K, m1 = 0.958 | 492.8 J/K/mol | 1046.86 kg/m3
333.15 K, m1 = 0.0096 | 532 J/K/mol | –
333.15 K, m1 = 0.0207 | 517 J/K/mol | –
333.15 K, m1 = 0.03 | 498 J/K/mol and 506 J/K/mol | –
333.15 K, m1 = 0.07 | 509.2 J/K/mol | –
333.15 K, m1 = 0.1502 | 501.5 J/K/mol | –
333.15 K, m1 = 0.1999 | 512.1 J/K/mol | –
333.15 K, m1 = 0.3018 | 514.9 J/K/mol | –
333.15 K, m1 = 0.5001 | 518.8 J/K/mol | –
333.15 K, m1 = 0.7003 | 519.6 J/K/mol | –
333.15 K, m1 = 0.958 | 501.1 J/K/mol | –
338.15 K, m1 = 0.0096 | 540 J/K/mol | –
338.15 K, m1 = 0.0207 | 524 J/K/mol | –
338.15 K, m1 = 0.03 | 505 J/K/mol and 514 J/K/mol | –
338.15 K, m1 = 0.07 | 517 J/K/mol | –
338.15 K, m1 = 0.1502 | 510.1 J/K/mol | –
338.15 K, m1 = 0.1999 | 520 J/K/mol | –
338.15 K, m1 = 0.3018 | 522.8 J/K/mol | –
338.15 K, m1 = 0.5001 | 526.6 J/K/mol | –
338.15 K, m1 = 0.7003 | 527.5 J/K/mol | –
338.15 K, m1 = 0.958 | 509.1 J/K/mol | –
343.15 K, m1 = 0.0096 | 547 J/K/mol | –
343.15 K, m1 = 0.0207 | 532 J/K/mol | –
343.15 K, m1 = 0.03 | 511 J/K/mol and 523 J/K/mol | –
343.15 K, m1 = 0.07 | 524.3 J/K/mol | –
343.15 K, m1 = 0.1502 | 518.1 J/K/mol | –
343.15 K, m1 = 0.1999 | 527.4 J/K/mol | –
343.15 K, m1 = 0.3018 | 530.1 J/K/mol | –
343.15 K, m1 = 0.5001 | 533.9 J/K/mol | –
343.15 K, m1 = 0.7003 | 535 J/K/mol | –
343.15 K, m1 = 0.958 | 516.5 J/K/mol | –
348.15 K, m1 = 0.0096 | 554 J/K/mol | –
348.15 K, m1 = 0.01 | – | 975.69 kg/m3
348.15 K, m1 = 0.02 | – | 976.44 kg/m3
348.15 K, m1 = 0.0207 | 538 J/K/mol | –
348.15 K, m1 = 0.03 | 518 J/K/mol and 531 J/K/mol | 977.15 kg/m3 and 977.05 kg/m3
348.15 K, m1 = 0.07 | 531.6 J/K/mol | 979.84 kg/m3
348.15 K, m1 = 0.1502 | 525.9 J/K/mol | 986.13 kg/m3
348.15 K, m1 = 0.1999 | 534.7 J/K/mol | 988.48 kg/m3
348.15 K, m1 = 0.3018 | 537.2 J/K/mol | 995.03 kg/m3
348.15 K, m1 = 0.5001 | 540.8 J/K/mol | 1007.4 kg/m3
348.15 K, m1 = 0.7003 | 542.3 J/K/mol | 1019.03 kg/m3
348.15 K, m1 = 0.958 | 523.5 J/K/mol | 1035.29 kg/m3
353.15 K, m1 = 0.0096 | 561 J/K/mol | –
353.15 K, m1 = 0.0207 | 545 J/K/mol | –
353.15 K, m1 = 0.03 | 524 J/K/mol and 539 J/K/mol | –
353.15 K, m1 = 0.07 | 538.7 J/K/mol | –
353.15 K, m1 = 0.1502 | 533.4 J/K/mol | –
353.15 K, m1 = 0.1999 | 541.6 J/K/mol | –
353.15 K, m1 = 0.3018 | 544.1 J/K/mol | –
353.15 K, m1 = 0.5001 | 547.6 J/K/mol | –
353.15 K, m1 = 0.7003 | 549.6 J/K/mol | –
353.15 K, m1 = 0.958 | 530.3 J/K/mol | –
358.15 K, m1 = 0.0096 | 568 J/K/mol | –
358.15 K, m1 = 0.01 | – | 969.57 kg/m3
358.15 K, m1 = 0.02 | – | 969.97 kg/m3
358.15 K, m1 = 0.0207 | 552 J/K/mol | –
358.15 K, m1 = 0.03 | 529 J/K/mol and 547 J/K/mol | 970.91 kg/m3 and 970.89 kg/m3
358.15 K, m1 = 0.07 | 545.8 J/K/mol | 973.66 kg/m3
358.15 K, m1 = 0.1502 | 540.9 J/K/mol | 979.94 kg/m3
358.15 K, m1 = 0.1999 | 548.3 J/K/mol | 982.31 kg/m3
358.15 K, m1 = 0.3018 | 550.7 J/K/mol | 988.83 kg/m3
358.15 K, m1 = 0.5001 | 554.1 J/K/mol | 1000.87 kg/m3
358.15 K, m1 = 0.7003 | 556.9 J/K/mol | 1012.6 kg/m3
358.15 K, m1 = 0.958 | 536.9 J/K/mol | 1028.69 kg/m3
363.15 K, m1 = 0.0096 | 574 J/K/mol | –
363.15 K, m1 = 0.0207 | 558 J/K/mol | –
363.15 K, m1 = 0.03 | 533 J/K/mol and 553 J/K/mol | –
363.15 K, m1 = 0.07 | 551.5 J/K/mol | –
363.15 K, m1 = 0.1502 | 547.3 J/K/mol | –
363.15 K, m1 = 0.1999 | 554.3 J/K/mol | –
363.15 K, m1 = 0.3018 | 556.6 J/K/mol | –
363.15 K, m1 = 0.5001 | 559.9 J/K/mol | –
363.15 K, m1 = 0.7003 | 564.4 J/K/mol | –
363.15 K, m1 = 0.958 | 542.9 J/K/mol | –
368.15 K, m1 = 0.01 | – | 963.46 kg/m3
368.15 K, m1 = 0.02 | – | 963.16 kg/m3
368.15 K, m1 = 0.03 | – | 964.01 kg/m3 and 964.02 kg/m3
368.15 K, m1 = 0.07 | – | 966.84 kg/m3
368.15 K, m1 = 0.1502 | – | 973.05 kg/m3
368.15 K, m1 = 0.1999 | – | 975.42 kg/m3
368.15 K, m1 = 0.3018 | – | 981.89 kg/m3
368.15 K, m1 = 0.5001 | – | 994.17 kg/m3
368.15 K, m1 = 0.7003 | – | 1005.68 kg/m3
368.15 K, m1 = 0.958 | – | 1021.82 kg/m3
